# Source: patent publication US10370364B1, “Substituted chromenes for treatment of fibrosis or non-alcoholic steatohepatitis” (OSTEONEUROGEN INC., priority 2018, dated 2019)
# Read-outs that look alike come from different tables or passages of the source.
# Experiments:
# ONGHEPA1 cells = assay: TGF-β-induced fibrosis of ONGHEPA1 cells (differentiation into myofibroblasts, phase contrast microscope); type: cell-based, rat; settings: TGF-β 5 ng/ml, compound 50 μM in DMSO, 24 hours
# Method: In order to examine the effect of a compound of the present invention against fibrosis, ONGHEPA1 cells (KCTC13086BP), which are mesenchymal stem cells (MSCs) derived from rat hepatic stellate cells (HSCs) and capable of proliferating indefinitely, were first used. Fibrosis of the ONGHEPA1 cells can be induced by a simple method of treating the cells with TGF-β (transforming growth factor beta) or PDGF (platelet-derived growth factor).
# The ONGHEPA1 cells were seeded into medium, cultured for 24 hours, and then treated with TGF-β (5 ng/ml) to induce cell fibrosis. Alternatively, the cells were co-treated with TGF-β and the compound of the present invention (50 μM in DMSO) and cultured for 24 hours. Next, the degree of fibrosis of the cells, that is, the degree of differentiation into myofibroblasts, was examined with a phase contrast microscope (200×).
# In this regard, the detailed experimental method followed the paper of Kim et al. (Han-Soo Kim, Jun-Hwan Kim, Ji Yong Lee, Young-Min Yoon, Ik-Hwan Kim, Ho-Sup Yoon, Byung-Soo Youn. Small molecule-mediated reprogramming of epithelial-mesenchymal transition thereby blocking fibrosis. bioRxiv preprint first posted online Feb. 16, 2017; doi: http://dx.doi.org/10.1101/106591).
# The effects of the following comparative compounds against fibrosis were examined in the same manner as described in Experimental Example 1-1 above.
# A549 cell line = assay: TGF-β-induced myofibroblast differentiation of A549 cell line; type: cell-based, human; settings: A549, TGF-β 5 ng/ml, compound 25 or 50 μM, 24 or 48 hours
# Method: The A549 cell line, which is a lung adenocarcinoma cell line used as a lung EMT-related study model, was seeded into medium, cultured for 24 hours, and then treated with TGF-β (5 ng/ml). Alternatively, the A549 cell line was co-treated with TGF-β and the compound of the present invention (25 or 50 μM in DMSO) and cultured for 24 or 48 hours. Next, the cells were examined with a phase contrast microscope (200×).
# Snail = Snail expression in A549 cells by real-time PCR; type: cell-based, human; settings: A549, TGF-β plus compound
# Method: In addition, in order to examine whether the effect as described above would be attributable to the effect against EMT, the expression patterns of Snail and Vimentin, which are representative markers of EMT, in the cells of each test group, were analyzed by real-time PCR.
# [1] = Metabolic stability in rat liver microsomes with NADPH; type: in vitro ADME; settings: rat, rat liver microsomes
# Method: (§1) The compound of the present invention was incubated with rat liver microsomes and NADPH, and then the rate of elimination of the compound was measured, thereby determining the intrinsic clearance value (CLint value) of the compound.
# Rat liver microsomes = assay: as above; type: in vitro ADME; settings: Rat liver microsomes
# Method: as §1
# physchem = assay: physchem
# Method: The compound of the present invention was added to phosphate buffer (pH 7.4) at a concentration of 1 mg/ml and stirred. After 16 hours, the sample was filtered through a filter, and the supernatant was analyzed by HPLC-UV, thereby determining the content of compound dissolved.
# [2] = Pharmacokinetics in male SD rats (oral and i.v., various formulations); type: in vivo, rat
# Method: To examine the pharmacokinetics of the compound after oral administration, rat models were used.
# Male SD rats (weighed 250 to 300 g) were divided into several groups, each consisting of 3 rats, […], after which the amount of the compound present in the plasma was measured with the passage of time. […]
# For effective formulation of the compound of the present invention, the pharmacokinetics of various formulations after oral administration were examined according to the same method as described in Experimental Example 2-4 above.
# [3] = Concentration of compound in plasma and lung of bleomycin fibrotic mice; type: in vivo; settings: 1 hour after final administration; pirfenidone 100 mpk, Compound 1 10-100 mpk PO
# Method: The amounts of the compound present in the plasma and lung of each of the sacrificed mice (finally administered with each compound at 1 hour before sacrifice) were measured. […] If it is attempted to formulate the compound of the present invention in various manners, it is expected that the compound of the present invention can effectively treat fibrosis even at lower concentrations.
# CYP2D6 [4] = biological target: T1, CYP2D6 (Homo sapiens, UniProt P10635)
# CYP2C9 = CYP2C9 (Homo sapiens, UniProt P11712)
# CYP3A4 = CYP3A4 (Homo sapiens, UniProt P08684); assay: CYP450 inhibition, CYP3A4
# CYP2D6 [5] = biological target: T1, CYP2D6; assay: CYP450 inhibition, CYP2D6
# [6] = male, SD, plasma, iv, 1 mg/kg, rat, 1 mpk i.v, Formulation Example 1
# [7] = male, SD, rat, plasma, po, 10 mg/kg, 10 mpk po, Formulation Example 3, NMP/PEG400/Solutol HS/water vehicle
# [8] = male, SD, rat, plasma, po, 10 mg/kg, 10 mpk po, Formulation Example 4, NMP/ethanol/PEG200/saline vehicle
# [9] = male, SD, rat, plasma, po, 10 mg/kg, 10 mpk po, Formulation Example 5, in 30% HPCD aqueous solution
# [10] = male, SD, rat, plasma, po, 200 mg/kg, 200 mpk po, Formulation Example 2
# Chain of CYP3A4 (P08684 whole entry): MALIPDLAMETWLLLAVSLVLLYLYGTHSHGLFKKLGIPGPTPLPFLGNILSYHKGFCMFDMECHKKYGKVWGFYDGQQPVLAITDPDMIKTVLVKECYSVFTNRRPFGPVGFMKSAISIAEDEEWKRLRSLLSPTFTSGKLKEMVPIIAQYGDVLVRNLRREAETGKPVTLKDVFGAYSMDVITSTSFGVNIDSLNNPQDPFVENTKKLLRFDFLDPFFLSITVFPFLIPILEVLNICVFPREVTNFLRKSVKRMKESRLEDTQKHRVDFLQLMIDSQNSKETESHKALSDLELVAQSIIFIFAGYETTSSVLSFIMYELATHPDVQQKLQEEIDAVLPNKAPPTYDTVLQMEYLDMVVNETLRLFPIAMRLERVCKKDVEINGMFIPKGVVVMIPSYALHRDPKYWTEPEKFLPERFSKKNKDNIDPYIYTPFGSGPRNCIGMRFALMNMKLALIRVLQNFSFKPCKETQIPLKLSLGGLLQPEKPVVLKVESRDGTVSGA
# T1 sequence (P10635 whole entry): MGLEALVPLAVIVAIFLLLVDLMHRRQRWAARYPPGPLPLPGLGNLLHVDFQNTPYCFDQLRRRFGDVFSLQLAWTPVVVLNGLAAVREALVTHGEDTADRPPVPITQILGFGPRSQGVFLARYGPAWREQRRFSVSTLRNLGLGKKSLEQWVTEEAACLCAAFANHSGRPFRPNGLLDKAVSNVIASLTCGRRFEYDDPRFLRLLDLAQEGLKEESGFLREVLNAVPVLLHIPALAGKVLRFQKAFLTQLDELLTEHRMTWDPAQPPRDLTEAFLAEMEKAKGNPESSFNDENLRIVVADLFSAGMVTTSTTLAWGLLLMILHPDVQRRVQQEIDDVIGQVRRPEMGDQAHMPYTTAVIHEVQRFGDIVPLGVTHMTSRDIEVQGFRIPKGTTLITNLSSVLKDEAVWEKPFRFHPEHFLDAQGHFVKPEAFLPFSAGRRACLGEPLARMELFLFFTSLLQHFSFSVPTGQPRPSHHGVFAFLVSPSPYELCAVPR
# Chain of CYP2C9 (P11712 whole entry): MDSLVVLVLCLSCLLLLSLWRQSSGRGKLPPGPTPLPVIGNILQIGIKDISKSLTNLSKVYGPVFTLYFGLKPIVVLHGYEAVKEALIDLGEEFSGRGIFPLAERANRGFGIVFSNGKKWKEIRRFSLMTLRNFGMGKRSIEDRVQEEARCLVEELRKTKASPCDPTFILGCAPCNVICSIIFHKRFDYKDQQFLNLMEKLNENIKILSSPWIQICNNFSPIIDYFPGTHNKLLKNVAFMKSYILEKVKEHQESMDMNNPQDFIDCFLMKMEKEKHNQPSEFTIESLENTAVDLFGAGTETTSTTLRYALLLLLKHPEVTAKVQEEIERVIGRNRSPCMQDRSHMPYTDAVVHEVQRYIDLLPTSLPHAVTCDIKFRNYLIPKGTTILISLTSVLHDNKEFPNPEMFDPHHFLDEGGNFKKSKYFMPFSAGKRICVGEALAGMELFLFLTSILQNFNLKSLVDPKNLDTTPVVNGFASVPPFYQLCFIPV
smiles,measurement,setting,value
"COc1ccc(-c2cc(=O)c3c(O)c(OC)c(OCCN4CCNC(=O)C4)cc3o2)cc1OC [Compound 1, 4-(2-((2-(3,4-dimethoxyphenyl)-5-hydroxy-6-methoxy-4-oxo-4H-chromen-7-yl)oxy)ethyl)piperazin-2-one]",degree of fibrosis of the cells (differentiation into myofibroblasts),ONGHEPA1 cells,showed no fibrosis symptom
same,myofibroblast differentiation,A549 cell line,inhibited
same,expression of Snail,Snail,significantly inhibited
same,microsomal CLint,[1]; read-out: CL int,19.4 µL/min/mg
same,half-life,[1]; read-out: t½,1.19 h
same,Clearance value,Rat liver microsomes,Moderate
same,metabolic stability (in words),Rat liver microsomes; NADPH,metabolically stable such that it could be comparable with atenolol
same,solubility in the buffer (in words),physchem; pH 7.4,"lower than that of caffeine, but higher than that of diethyl stilbesterol"
same,solubility at 16 h,"physchem; pH 7.4, aqueous buffer, thermodynamic from solid",9.59 µg/mL
same,plasma profile after oral administration (in words),"[2]; Formulation Example 2 compared to Formulation Example 3, FIG. 25",absorbed rapidly in vivo after oral administration and was maintained in the plasma for a long period of time
same,MRT inf,"[2]; male, SD, plasma, 10 mg/kg, rat, 10 mpk po, Formulation Example 5",3.2 ± 0.7 h
same,half-life,"[2]; male, SD, plasma, 10 mg/kg, rat, 10 mpk po, Formulation Example 5, read-out: t1/2 (converted)",1.9 ± 0.6 h
same,MRT inf,"[2]; male, SD, plasma, 200 mg/kg, rat, 200 mpk po, Formulation Example 2",1.7 ± 0.2 h
same,half-life,"[2]; male, SD, plasma, 200 mg/kg, rat, 200 mpk po, Formulation Example 2, read-out: t½ (converted)",1.5 ± 0.4 h
same,MRT inf,[2]; [6],0.4 h
same,Vd,[2]; [6],3.6 ± 0.25 L/kg
same,C0,"[2]; male, SD, plasma, iv, 1 mg/kg, rat, 1 mpk i.v, Formulation Example 1 (100% DMSO)",506 ± 130 ng/mL
same,clearance,"[2]; male, SD, plasma, iv, 1 mg/kg, rat, 1 mpk i.v, Formulation Example 1, read-out: CLP (converted)",112 mL/min/kg
same,half-life,"[2]; male, SD, plasma, iv, 1 mg/kg, rat, 1 mpk i.v, Formulation Example 1, read-out: t1/2 (converted)",0.38 ± 0.03 h
same,AUC(0-inf),"[2]; male, SD, rat, plasma, iv, 1 mg/kg, 1 mpk i.v, Formulation Example 1",149 ± 3 ng·h/mL
same,AUC(0-t),"[2]; male, SD, rat, plasma, iv, 1 mg/kg, rat, 1 mpk i.v, Formulation Example 1, read-out: AUC(0-t)",147 ± 2.2 ng·h/mL
same,bioavailability,"[2]; male, SD, rat, plasma, po, 10 mg/kg, 10 mpk po, Formulation Example 2",1.4%
same,bioavailability,"[2]; male, SD, rat, plasma, po, 10 mg/kg, 10 mpk po, Formulation Example 3",~9%
same,AUC(0-inf),[2]; [7],155 ± 7.5 ng·h/mL
same,Tmax,[2]; [7],0.25 ± 0.1 h
same,bioavailability,"[2]; male, SD, rat, plasma, po, 10 mg/kg, 10 mpk po, Formulation Example 4",~3%
same,AUC(0-inf),[2]; [8],46.4 ± 14.1 ng·h/mL
same,Tmax,[2]; [8],0.25 h
same,bioavailability,"[2]; male, SD, rat, plasma, po, 10 mg/kg, 10 mpk po, Formulation Example 5",~7%
same,Cmax,"[2]; male, SD, rat, plasma, po, 10 mg/kg, 10 mpk po, Formulation Example 5 (30% (w/v) HPCD aqueous solution)",393 ± 299 ng/mL
same,AUC(0-inf),[2]; [9],1080 ± 327 ng·h/mL
same,Tmax,[2]; [9],1.3 ± 0.6 h
same,Cmax,"[2]; male, SD, rat, plasma, po, 10 mg/kg, rat, 10 mpk po, Formulation Example 2 (Tween80: 0.5% CMC 1:99)",22.3 ± 8.9 ng/mL
same,Tmax,"[2]; male, SD, rat, plasma, po, 10 mg/kg, rat, 10 mpk po, Formulation Example 2, in Tween80:0.5% CMC aqueous vehicle",0.4 ± 0.1 h
same,AUC(0-t),"[2]; male, SD, rat, plasma, po, 10 mg/kg, rat, 10 mpk po, Formulation Example 2, in Tween80:0.5% CMC aqueous vehicle, read-out: AUC(0-t)",20.4 ± 6.2 ng·h/mL
same,Cmax,"[2]; male, SD, rat, plasma, po, 10 mg/kg, rat, 10 mpk po, Formulation Example 3 (NMP: PEG400: SOLUTOL HS: water 10:20:20:50)",62.2 ± 37.5 ng/mL
same,AUC(0-t),"[2]; male, SD, rat, plasma, po, 10 mg/kg, rat, 10 mpk po, Formulation Example 3, NMP/PEG400/Solutol HS/water vehicle, read-out: AUC(0-t)",126 ± 19.1 ng·h/mL
same,Cmax,"[2]; male, SD, rat, plasma, po, 10 mg/kg, rat, 10 mpk po, Formulation Example 4 (NMP: ethanol: PEG200: normal saline 5:10:30:55)",46.7 ± 8.8 ng/mL
same,AUC(0-t),"[2]; male, SD, rat, plasma, po, 10 mg/kg, rat, 10 mpk po, Formulation Example 4, NMP/ethanol/PEG200/saline vehicle, read-out: AUC(0-t)",42.5 ± 16 ng·h/mL
same,AUC(0-t),"[2]; male, SD, rat, plasma, po, 10 mg/kg, rat, 10 mpk po, Formulation Example 5, in 30% HPCD aqueous solution, read-out: AUC(0-t)",1000 ± 314 ng·h/mL
same,AUC(0-inf),[2]; [10],426 ± 67.7 ng·h/mL
same,Tmax,[2]; [10],1 h
same,bioavailability,[2]; [10],1.4%
same,Cmax,"[2]; male, SD, rat, plasma, po, 200 mg/kg, rat, 200 mpk po, Formulation Example 2 (Tween80: 0.5% CMC 1:99)",261 ± 41.4 ng/mL
same,AUC(0-t),"[2]; male, SD, rat, plasma, po, 200 mg/kg, rat, 200 mpk po, Formulation Example 2, read-out: AUC (0-24)",420 ± 69.3 ng·h/mL
same,AUC(0-t),"[2]; male, SD, rat, plasma, po, 200 mg/kg, rat, 200 mpk po, Formulation Example 2, read-out: AUC(0-t)",420 ± 69.3 ng·h/mL
same,bioavailability,"[2]; male, SD, rat, plasma, po, Formulation Example 2, dose not given",1.4%
same,AUC_% Extrap (obs),"[2]; rat, 1 mpk i.v, Formulation Example 1",1.8 ± 0.5%
same,AUC_% Extrap (obs),"[2]; rat, 10 mpk po, Formulation Example 5",7.0 ± 5.2%
same,absorption after oral administration (in words),"[2]; rat, 200 mpk po, 0.5% CMC and about 1% Tween-80",absorbed rapidly in vivo after oral administration
same,AUC_% Extrap (obs),"[2]; rat, 200 mpk po, Formulation Example 2",1.6 ± 0.7%
same,concentration of the compound in the lung,[3],relatively very low
same,concentration of the compound in the plasma,[3],relatively very low
same,inhibitory activity against CYP2D6 (in words),CYP2D6 [4],little or very low inhibitory activity
same,inhibitory activity against CYP2C9 (in words),CYP2C9,slight inhibitory activity
same,IC50,"CYP3A4; 3A4-midazolam IC50, substrate midazolam",> 50 µM
same,IC50,"CYP3A4; 3A4-testosterone IC50, substrate testosterone",49.7 µM
same,IC50,CYP2D6 [5],> 50 µM
